Experimental data reported in paper PMC10739246 (ACS Bio & Med Chem Au, 2023).
Converted amounts (≈) assume the structure as drawn. “Also recorded” adds a separate entry of the source. Read-outs that look alike come from different tables or passages of the source. Residues, ends and D or L forms follow the SMILES beside them.

Key:
[1] = system: B. subtilis DSM402; test: Peptidoglycan integrity assay (acetic acid/methanol fixation); settings: 1x MIC; 30 min (cell wall inhibitors) or 60 min
[2] = system: B. subtilis DSM402; settings: for μM (concentration used, 1x MIC): Table 2, cells treated with 1x MIC; for concentration (MIC against B. subtilis DSM402): Tab. S13, concentrations represent MIC values
[3] = system: cell wall biosynthesis in B. subtilis DSM402; test: Summary of cell wall synthesis experiments; type: cell-based, Bacillus subtilis
[4] = system: MreB in B. subtilis MW10; test: MreB mobility assay; type: cell-based, Bacillus subtilis; settings: B. subtilis MW10, 1 h of antibiotic exposure
Procedure: MreB is an actin homologue that forms filamentous structures along the lateral axis of the cell. It moves along the length of the cells in a spiraling pattern thereby driving lateral peptidoglycan synthesis.[36],[37] MreB mobility is sensitive to inhibition of peptidoglycan synthesis and so far, every cell wall synthesis inhibitor we tested abolished MreB movement (see Figure S70 for examples).
Expression of msfGFP-MreB was induced with 0.3% xylose. Pictures were taken after 1 h of antibiotic exposure. Two images of the same field of view were recorded 30 s apart and overlaid in ImageJ to visualize MreB mobility. A perfect overlap (yellow) indicates stalled MreB movement, while distinct red and green foci are indicative of MreB mobility. Scale bar 2 μm.
Fig. S70: MreB motility in B. subtilis MW10 after treatment with different cell wall synthesis inhibitors. Expression of GFP-MreB was induced with 0.3% xylose. Cells were treated with 1x […]
Two images of the same field of view were recorded 30 sec apart and overlaid in ImageJ to visualize MreB mobility. A perfect overlap (yellow) indicates stalled MreB movement while distinct red and green spots are indicative of MreB mobility. Scale bar 2 µm.

[5] = system: MurG in B. subtilis TNVS175; test: MurG localization; type: cell-based, Bacillus subtilis; settings: 1x MIC; 30 min (vancomycin) or 1 h;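 note: normal MurG forms small membrane spots and peptidoglycan inhibition gives large clusters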
[6] = system: M. tuberculosis (MC26020); test: microbe, parasite or virus in culture; type: cell-based, Mycobacterium tuberculosis
[7] = system: E. coli; test: microbe, parasite or virus in culture; settings: Escherichia coli, read-out: MICC (MIC of the test compound alone)
[8] = system: E. coli; settings: for FICC (fractional inhibitory concentration of the test compound): MICCcheckerboard/MICC; for MICCcheckerboard (MIC of the test compound in checkerboard assay): combined with mupirocin; for FICM (MICMcheckerboard/MICM): mupirocin alone 64 µg/mL; for MICMcheckerboard (MIC of mupirocin in checkerboard assay): mupirocin combined with the compound of the line
[9] = system: B. subtilis DSM402; test: Bacterial cytological profiling (BCP) in B. subtilis DSM402; type: cell-based, Bacillus subtilis; settings: for DAPI / phase contrast / FM4-64: 1x MIC, 1 h; for DAPI: DNA condensation; for phase contrast: indicates cell lysis; for FM4-64: membrane stain; for gyrase inhibition / membrane damage: interpretation of BCP in B. subtilis
[10] = system: E. coli (W3110); test: MIC, microdilution, E. coli W3110; type: cell-based, Escherichia coli; settings: for MIC: Gram-negative strain, average of duplicate experiments, read-out: MIC E. coli (W3110); for concentration (MIC against E. coli W3110): Tab. S11, concentrations represent MIC values
[11] = system: E. faecalis (ATCC 19433); test: MIC, E. faecalis ATCC 19433; type: cell-based, Enterococcus faecalis
[12] = system: P. aeruginosa (PAO1); test: MIC, microdilution, P. aeruginosa PAO1; type: cell-based, Pseudomonas aeruginosa
[13] = system: E. coli W3110; test: Bacterial cytological profiling (BCP) in E. coli W3110; type: cell-based, Escherichia coli; settings: for DAPI / phase contrast / FM4-64: 1x MIC, 1 h; for DAPI: DNA condensation; for phase contrast: indicates cell lysis; for FM4-64: membrane stain; for gyrase inhibition / membrane damage: interpretation of BCP in E. coli
[14] = system: E. coli BCB472; test: GlpT localization (inner membrane) in E. coli BCB472; settings: 1x MIC, 1 h; GFP-tagged membrane protein
[15] = system: S. aureus (CCUG1800T); test: MIC, microdilution, S. aureus CCUG1800T; type: cell-based, Staphylococcus aureus
[16] = system: norfloxacin-resistant clinical isolate of E. coli; test: MIC, microdilution, norfloxacin-resistant clinical isolate of E. coli; type: cell-based, Escherichia coli; settings: read-out: MIC E. coli (norfloxacin-resistant strain)
[17] = system: K. pneumoniae (ATCC 10031); test: MIC, K. pneumoniae ATCC 10031; type: cell-based, Klebsiella pneumoniae
[18] = system: S. aureus (ATCC 43300) MRSA; test: MIC, microdilution, MRSA ATCC 43300; type: cell-based, Staphylococcus aureus; settings: norfloxacin-resistant strain
[19] = read-out: MIC S. aureus (CCUG1800T)

C[C@@H]1O[C@@H]1P(=O)(O)O [Fos, fosfomycin]
PG integrity [1]: compromised | μM (concentration used, 1x MIC) [2]: 72.43 µM | CWB inhibited? [3]: yes | MreB mobility [4]: static with foci | protein localization MurG [5]: patchy/dispersed

NNC(=O)c1ccncc1 [INH, isoniazid, reference compound]
MIC ([6]; Mycobacterium tuberculosis, read-out: MIC M. tuberculosis (MC26020)): 1.82 µM (≈ 0.25 µg/mL)

C/C(=C\C(=O)OCCCCCCCCC(=O)O)C[C@@H]1OC[C@H](C[C@@H]2O[C@H]2[C@@H](C)[C@H](C)O)[C@@H](O)[C@H]1O [Mup, mupirocin]
MIC [7]: 64 µg/mL

CC(C)C[C@@H]1NC(=O)[C@@H](Cc2ccccc2)NC(=O)[C@H](CCN)NC(=O)[C@@H](NC(=O)[C@H](CCN)NC(=O)[C@@H](N)[C@@H](C)O)CCNC(=O)[C@H]([C@@H](C)O)NC(=O)[C@H](CCN)NC(=O)[C@H](CCN)NC1=O [PolBN, polymyxin B nonapeptide, reference compound] (HELM PEPTIDE1{T.[Dab].[Dab].[Dab].[dF].L.[Dab].[Dab].T}$PEPTIDE1,PEPTIDE1,3:R3-9:R2$$$V2.0; N-terminus assumed)
FICI (fractional inhibitory concentration index) [8]: 0.0234 | MICC (MIC of the test compound alone) [8]: 128 µg/mL | FICC (fractional inhibitory concentration of the test compound) [8]: 0.0078 | MICCcheckerboard (MIC of the test compound in checkerboard assay) [8]: 1 µg/mL | FICM (MICMcheckerboard/MICM) [8]: 0.0156 | MICMcheckerboard (MIC of mupirocin in checkerboard assay) [8]: 1 µg/mL

CCn1cc(C(=O)O)c(=O)c2cc(F)c(N3CCN(C(=O)CCl)CC3)cc21 [compound 2]
DAPI [9]: condensed | phase contrast [9]: dark | FM4-64 [9]: smooth | gyrase inhibition [9]: yes | membrane damage [9]: no | MIC M. tuberculosis (MC26020) [6]: >1293.54 µM | MIC [10]: 6.31 µM (≈ 2.5 µg/mL) | concentration (MIC against E. coli W3110) [10]: 6.31 µM | PG integrity [1]: came close to the cutoff value; also recorded: intact | concentration (MIC against B. subtilis DSM402) [2]: 1.89 µM | μM (concentration used, 1x MIC) [2]: 1.89 µM | MIC [11]: 6.31 µM (≈ 2.5 µg/mL) | MIC [12]: 192 µM (≈ 76 µg/mL) | DAPI [13]: condensed | phase contrast [13]: dark | FM4-64 [13]: smooth | gyrase inhibition [13]: yes | membrane damage [13]: no | GlpT [14]: smooth | MIC [15, 19]: 2.52 µM (≈ 0.997 µg/mL) | CWB inhibited? [3]: no | MIC [16]: >1293.54 µM | MIC [17]: 121.27 µM (≈ 48 µg/mL) | MIC [18]: 161.69 µM (≈ 64 µg/mL) | FICC (fractional inhibitory concentration of the test compound) [8]: 1.25 | MICC (MIC of the test compound alone) ([8]; average of at least two replicates): 2 µg/mL | Outcome ([8]; checkerboard with mupirocin): additive (>0.5 to ≤4.0 as additive (no interaction)) | MICCcheckerboard (MIC of the test compound in checkerboard assay) [8]: 2.5 µg/mL | FICM (MICMcheckerboard/MICM) [8]: 0.2656 | MICMcheckerboard (MIC of mupirocin in checkerboard assay) [8]: 7.8 µg/mL | FICI (fractional inhibitory concentration index) ([8]; with mupirocin, FICC+FICM): 1.5156

CCn1cc(C(=O)O)c(=O)c2cc(F)c(N3CCN(C(=O)CNNC(=O)c4ccncc4)CC3)cc21 [compound 16]
DAPI [9]: condensed | phase contrast [9]: dark | FM4-64 [9]: patchy | gyrase inhibition [9]: yes | membrane damage [9]: yes | MIC M. tuberculosis (MC26020) [6]: 1 µM (≈ 0.496 µg/mL) | MIC [10]: 64.45 µM (≈ 32 µg/mL) | PG integrity [1]: intact | concentration (MIC against B. subtilis DSM402) [2]: 2.01 µM | μM (concentration used, 1x MIC) [2]: 2.01 µM | MIC [11]: 2.01 µM (≈ 0.998 µg/mL) | MIC [12]: 515.61 µM (≈ 256 µg/mL) | MIC ([15]; Tab. S10, DNA gyrase side, strain not given, values equal S. aureus CCUG1800T of Table 1, read-out: MIC): 2.01 µM (≈ 0.998 µg/mL) | MIC [15, 19]: 2.01 µM (≈ 0.998 µg/mL) | CWB inhibited? [3]: no | MIC ([16]; norfloxacin-resistant clinical isolate): 32.22 µM (≈ 16 µg/mL) | MIC [17]: 12.08 µM (≈ 6 µg/mL) | MIC [18]: 64.45 µM (≈ 32 µg/mL)

polymyxin B [PolB, reference compound]
concentration (MIC against E. coli W3110) [10]: 0.83 µM | DAPI [13]: dispersed | phase contrast [13]: dark | FM4-64 [13]: patchy | gyrase inhibition [13]: no | membrane damage [13]: yes | GlpT [14]: dispersed

tunicamycin
PG integrity [1]: compromised | μM (concentration used, 1x MIC) [2]: 19.58 µM | CWB inhibited? [3]: yes | MreB mobility [4]: static | protein localization MurG [5]: patchy
